Tested on: messenger for the SPARC protein in the adipose tissue
Test: expression of the messenger for the SPARC protein in adipose tissue after insulin injection
Type: in vivo
Conditions: injected into mice

## insulin
  expression of the messenger for the SPARC protein in the adipose tissue: increases the expression of the messenger for the SPARC protein

Reference: US20040049799A1, “Method for screening agents capable of treating obesity” (priority 2000, published 2004)
